“Also recorded” adds a separate entry of the source.
Key:
[1] = molecular target: H4 receptor (Homo sapiens, UniProt Q9H3N8); conditions: as described in U.S. Pat. No. 7,507,737, 8,343,989 and others; cited from earlier work
[2] = Aqueous solubility at room temperature; type: physicochemical
[3] = Hygroscopicity and physical (solid form) stability; type: physicochemical; conditions: for conversion to another solid form: aqueous solution, atmosphere, dehydration or recrystallization; for physical stability: ambient conditions

Sequence of H4 receptor (Q9H3N8 whole entry): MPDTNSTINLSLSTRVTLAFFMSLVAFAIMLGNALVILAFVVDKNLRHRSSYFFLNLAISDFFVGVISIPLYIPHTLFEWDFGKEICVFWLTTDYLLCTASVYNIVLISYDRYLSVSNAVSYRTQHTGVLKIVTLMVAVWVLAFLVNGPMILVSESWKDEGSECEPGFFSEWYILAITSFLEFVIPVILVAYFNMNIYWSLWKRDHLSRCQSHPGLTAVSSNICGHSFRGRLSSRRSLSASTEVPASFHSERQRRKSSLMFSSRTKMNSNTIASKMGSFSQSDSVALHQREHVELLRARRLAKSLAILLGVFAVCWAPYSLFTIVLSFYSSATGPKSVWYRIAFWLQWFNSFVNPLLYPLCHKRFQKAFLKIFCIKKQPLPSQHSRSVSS

Compound: Cc1cc(C)c2nc(-c3cnc(NCCCC4CCN(C)CC4)nc3C)[nH]c2c1 [Compound 2, [5-(4,6-Dimethyl-1H-benzoimidazol-2-yl)-4-methyl-pyrimidin-2-yl]-[3-(1-methyl-piperidin-4-yl)-propyl]-amine]
- H4 receptor modulator activity [1]: has H4 receptor modulator activity

Compound: Cc1cc(C)c2nc(-c3cnc(NCCCC4CCN(C)CC4)nc3C)[nH]c2c1.O=C(O)C(O)C(O)C(=O)O [Compound 2.1, 5-(4,6-dimethyl-1H-benzimidazol-2-yl)-4-methyl-N-[3-(1-methyl-4-piperidinyl)-propyl]-2-pyrimidinamine 2,3-dihydroxybutanedioate (1:0.5)]
- aqueous solubility [2]: about 1.1 g/ml
- hygroscopicity [3]: hygroscopic
- relative humidity above which it converts to Compound 3 [3]: above 70 % relative humidity
- conversion to another solid form [3]: forms the tetrahydrate Compound 3 in aqueous solution

Compound: Cc1cc(C)c2nc(-c3cnc(NCCCC4CCN(C)CC4)nc3C)[nH]c2c1 [Compound 2.2, 5-(4,6-dimethyl-1H-benzimidazol-2-yl)-4-methyl-N-[3-(1-methyl-4-piperidinyl)-propyl]-2-pyrimidinamine 2,3-dihydroxybutanedioate (1:0.5)]
- hygroscopicity [3]: absorbs water readily
- physical stability [3]: physically stable only when stored in a tightly sealed vial at ambient condition
- conversion to another solid form [3]: converts to Compound 3 when exposed to the atmosphere

Compound: Cc1cc(C)c2nc(-c3cnc(NCCCC4CCN(C)CC4)nc3C)[nH]c2c1.O=C(O)C(O)C(O)C(=O)O [Compound 3, 5-(4,6-dimethyl-1H-benzimidazol-2-yl)-4-methyl-N-[3-(1-methyl-4-piperidinyl)-propyl]-2-pyrimidinamine 2,3-dihydroxybutanedioate tetrahydrate (1:0.5:4)]
- aqueous solubility [2]: about 4.1 mg/ml
- physical stability [3]: stable under ambient conditions
- conversion to another solid form [3]: converts to Compound 2.2 upon dehydration by heating or in low relative humidity; also recorded: no conversion of Compound 3 to other forms was detected

From patent US8859575B2, “Benzoimidazol-2-yl pyrimidine modulators of the histamine h4 receptor” (Janssen Pharmaceutica NV, priority 2013, dated 2014)
